In article PMC10455802, “A New Mild Method for Synthesis of Marine Alkaloid Fascaplysin and Its Therapeutically Promising Derivatives” (Marine Drugs, 2023):

What was measured:
[1] = tested on: MRC-9 cells (human fibroblasts); test: MTT assay, MRC-9; type: cell-based; conditions: MRC9, MRC-9, 48 h, mean ± SD
Text: (§1) To investigate the effect of the tert-butyl group on anticancer activity and selectivity, we evaluated the cytotoxic activity of unsubstituted fascaplysin (1) and 6-tert-butylfascaplysin (4) in various cancer and non-cancer cell lines using the well-established MTT method (Table 4). The effects on the human prostate cancer cells PC3 and DU145 (hormone-independent cells), 22Rv1 (partially hormone-independent cells), and LNCaP (hormone-sensitive cells), as well as on the normal (non-cancerous) human cells PNT2, MRC-9, and HEK293, were investigated. The mean cytotoxicity of compound 4 towards either cancerous or non-cancerous cells decreased by ~2-fold compared to that of fascaplysin (1).
(§2) Cell lines PC-3, DU145, 22Rv1, and LNCaP (human prostate cancer), as well as PNT2 (human prostate non-cancer), were purchased from ATCC (Manassas, VA, USA). Human embryonic kidney cells HEK 293T and human fibroblasts MRC-9 cell lines were purchased from ECACC (Salisbury, UK). […] The cells were cultured at 37 °C as monolayers in a humidified atmosphere of 5% CO2. […]
(§3) The cytotoxic activity of the synthesized compounds was examined using an MTT assay, which was performed as previously reported. […] The absorbance of the DMSO solutions was measured using a TECAN Infinite F200PRO reader (Männedorf, Switzerland). IC50 were calculated with the GraphPad Prism v.9.1.1 (San Diego, CA, USA).

[2] = tested on: DU145 cells (human prostate cancer); test: MTT assay, DU145; type: cell-based; conditions: DU-145, DU145, 48 h, mean ± SD
Text: as §1, §2, §3

[3] = tested on: LNCaP cells (human prostate cancer); test: MTT assay, LNCaP; type: cell-based; conditions: 48 h, mean ± SD
Text: as §1, §2, §3

[4] = tested on: PC-3 cells (human prostate cancer); test: MTT assay, PC-3; type: cell-based; conditions: PC-3, 48 h, mean ± SD
Text: as §1, §2, §3

[5] = tested on: human prostate cancer cells PC-3, 22Rv1, DU145, LNCaP; test: MTT assay, cancer cells (average); type: cell-based; conditions: mean of PC-3, 22Rv1, DU145, LNCaP
Text: as §1, §2, §3

[6] = tested on: PNT2 cells (human prostate non-cancer); test: MTT assay, PNT2; type: cell-based; conditions: PNT2, 48 h, mean ± SD
Text: as §1, §2, §3

[7] = tested on: 22Rv1 cells (human prostate cancer); test: MTT assay, 22Rv1; type: cell-based; conditions: 22Rv1, 48 h, mean ± SD
Text: as §1, §2, §3

[8] = tested on: normal (non-cancerous) human cells PNT2, MRC-9, HEK293; test: MTT assay, non-cancer cells (average); type: cell-based; conditions: mean of PNT2, MRC-9, HEK293
Text: as §1, §2, §3

[9] = tested on: HEK293 cells (human embryonic kidney); test: MTT assay, HEK293; type: cell-based; conditions: HEK293, 48 h, mean ± SD
Text: as §1, §2, §3

[10] = tested on: human prostate cancer cells and normal (non-cancerous) human cells; test: MTT assay, cancer and non-cancer cell lines together (selectivity, overall cytotoxicity); type: cell-based
Text: as §1
Cell lines PC-3, DU145, 22Rv1, and LNCaP (human prostate cancer), as well as PNT2 (human prostate non-cancer), were purchased from ATCC (Manassas, VA, USA). Human embryonic kidney cells HEK 293T and human fibroblasts MRC-9 cell lines were purchased from ECACC (Salisbury, UK). […] The cells were cultured at 37 °C as monolayers in a humidified atmosphere of 5% CO2. The culture mediums used for cultivation and experiments: for PNT2, LNCaP, 22Rv1, PC-3, and DU145 cells—RPMI Glutamax^TM-I medium (gibco® Life Technologies^TM, Paisley, UK), supplemented with 10% FBS (gibco® Life Technologies^TM) and 1% penicillin/streptomycin (Invitrogen, Waltham, MA, USA); for MRC-9 and HEK 293 cells—DMEM GlutamaxTM-I medium (gibco® Life Technologies^TM), supplemented with 10% FBS and 1% penicillin/streptomycin.
as §3, with “reported. In brief, the cells were seeded in 96-well plates (6000 cells/well) and incubated overnight. The medium was replaced with fresh medium containing the tested drugs, and the cells were incubated for an additional 48 h.” for “reported.”

[11] = tested on: double-stranded calf thymus DNA; test: Thiazole orange displacement (DNA intercalation assay); type: binding; conditions: compared to fascaplysin (1)
Procedure: As the intercalation into DNA is considered an important component of the biological mechanism of action of fascaplysin, we evaluated and compared this activity for the synthesized 6-tert-butylfascaplysin (4) and unsubstituted fascaplysin (1). The drug–DNA complex formation was assessed by a fluorescent intercalator displacement assay based on the detachment of the thiazole orange (TO) intercalating agent from the DNA duplex by the tested compounds. The half-maximal concentrations for the effective displacement of TO from the DNA complex were calculated and are presented in Figure 3. In this experiment, the well-established DNA-binding compound, propidium iodide (PI), was used as a positive control.
A thiazole displacement assay was performed to measure the DNA intercalation activity. A mixture, containing 1 μM of double-stranded calf thymus DNA (recalculated as a concentration of base pairs) and 2 μM of thiazole orange (TO) staining agent dissolved in H2O, was used. The fascaplysins were added at concentrations of 0.39–25 μM. The DMSO concentration in the samples was not more than 0.02%. […] TO fluorescence was measured 7 min post-incubation at room temperature using a multimodal plate reader TECAN Spark (Männedorf, Switzerland) at the excitation λ = 480 nm. Fluorescence was recorded at λ = 530 nm with the bandwidth 10 nm. […]

[12] = type: physicochemical
Procedure: (§4) It was proposed based on the HRMS data, and its obtainment can be explained by the tendency towards oxidation of the fragment of p-hydroxyaminophenol of compound 26 (Scheme 6).
Method A. Freshly distilled BF3·OEt2 (0.02 mL, […]) in 2 mL of dry acetonitrile was slowly added to a stirred solution of 3 (5 mg, 0.01 mmol) and anhydrous NaI (2 mg, […]) in 5 mL of dry acetonitrile at 0 °C for 10–15 min. The mixture was stirred at 0 °C for 2 h and then for another 8 h at room temperature. The reaction was monitored by TLC. The formation of a rapidly oxidizing compound, presumably compound 27, with by-products was observed.
Method B. To 5 mg of 9-benzyloxyfascaplysin (0.01 mmol) in 5 mL of ethanol in a 10 mL flat-bottom flask, a catalytic amount of 10% palladium on carbon was added; this was sealed with a septum and left to stir under a hydrogen atmosphere on a magnetic stirrer at room temperature for 16 h. The reaction mixture changed color to green after 15 min. The progress of the reaction was monitored by TLC. The formation of a rapidly oxidizing compound, presumably compound 27, with by-products was observed.

[13] = Solubility observation of debenzylation product; type: physicochemical; conditions: product of benzyl removal from 3, presumably quinoid compound
Text: as §4

SMILES | IC50 [1] [nM] | IC50 [2] [nM] | IC50 [3] [nM] | IC50 [4] [nM] | IC50 [5] [nM] | IC50 [6] [nM] | IC50 [7] [nM] | IC50 [8] [nM] | IC50 [9] [nM] | IC50 ([10]; Homo sapiens, all tested cancer and non-cancer cell lines, read-out: IC50 in either cell line) [nM] | Selectivity index (SI) ([10]; SI = mean [IC50 non-cancer cells]/mean [IC50 cancer cells]) | fold decrease of mean cytotoxicity compared to fascaplysin (1) ([10]; towards either cancerous or non-cancerous cells) | fold less effective at displacing TO from the fluorescent complex with DNA than 1 [11] [fold] | chemical stability [12] | solubility [13]
O=C1c2ccccc2-[n+]2ccc3c([nH]c4ccccc43)c21 [Compound 1, fascaplysin] | 890 ± 46 | 798 ± 54 | 409 ± 20 | 766 ± 126 | 554 | 457 ± 75 | 242 | 602 | 458 ± 190 |  |  |  |  |  | 
CC(C)(C)c1cc2c([nH]c3ccccc32)c2[n+]1-c1ccccc1C2=O [Compound 4, 6-tert-butylfascaplysin] | 1370 ± 424 | 1730 ± 172 | 1330 ± 240 | 1100 ± 76 | 1190 | 1820 ± 448 | 580 ± 73 | 1180 | 348 ± 90 | ≤ 2000 | 0.99 | ~ 2 fold | 7 |  | 
O=C1c2ccccc2-[n+]2ccc3c([nH]c4ccc(O)cc43)c21 [Compound 26, 9-hydroxyfascaplysin] |  |  |  |  |  |  |  |  |  |  |  |  |  | chemically highly unstable | 
O=c1ccc2nc3c(cc[n+]4c5ccccc5c(=O)c34)c-2c1 [Compound 27] |  |  |  |  |  |  |  |  |  |  |  |  |  |  | extremely poorly soluble
